Measurements from patent US20160281050A1, “METHODS FOR TREATING A CULTURE OF HAEMATOCOCCUS PLUVIALIS FOR CONTAMINATION USING SALT AND HYDROGEN PEROXIDE” (HELIAE DEVELOPMENT LLC, priority 2015, published 2016).

Tested on: Haematococcus pluvialis (Strain 2)
Experiment: % cell lysis, culture dry weight and % carotenoid by UV method in 230 L reactors, salt treatment (Example 12)
Type: cell-based
Experimental: This test was done side by side in flasks (0.1 L) and in reactors located in a greenhouse operating in conditions: reactor volume of 230 L; Daily PAR of 20 mol m^−2 d^−1; pH (not measured); and paddlewheel speed of 21 RPM. […] The flask cultures were mixed by shaking at 140 rpm and received 300-400 μmol/m^2 s of photosynthetically active radiation (PAR) in 12 hour light cycles and constant supply of 2.5% CO2. The motility of the culture was monitored by visual observation under a microscope. […] Nine 230 L reactors were also seeded with culture from bioreactor #2410 on the same day as the flasks and brought to 2 ppt concentration of salt. Once motility of the cells was reduced to <10% (day 3 of culture for flasks and day 2 for 230 L reactors) the level of salt was elevated to a point between 4-18 ppt and compared to the culture in two reactors remaining at 2 ppt salt. Flasks and 230 L reactors were monitored for percentage of cell lysis via visual observation under a microscope, culture dry weight (biomass accumulation in g/L), and percentage of chytrid infection via visual observation under a microscope. Carotenoid production, a proxy for determining astaxanthin, was quantified every other day of culture in the 230 L reactors using the UV method.

In the case of `[Cl-].[Na+]` [NaCl, sodium chloride], the “Culture Dry Weight in 230L reactors” value (NaCl 2 ppt (1st 2 ppt column), time 12 d) is reported as 0.187 g/L, the “Culture Dry Weight in 230L reactors” value (NaCl 2 ppt, time 0 d) is reported as 0.043 g/L and the “Culture Dry Weight in 230L reactors” value (NaCl 2 ppt, time 1 d) is reported as 0.048 g/L. The “Culture Dry Weight in 230L reactors” value (NaCl 2 ppt, time 2 d) was 0.072 g/L, the “Culture Dry Weight in 230L reactors” value (NaCl 2 ppt, time 4 d) was 0.113 g/L and the “Culture Dry Weight in 230L reactors” value (NaCl 2 ppt, time 5 d) was 0.125 g/L. The “Culture Dry Weight in 230L reactors” value (NaCl 2 ppt, time 6 d) was 0.130 g/L, the “Culture Dry Weight in 230L reactors” value (NaCl 2 ppt, time 7 d) was 0.150 g/L and the “Culture Dry Weight in 230L reactors” value (NaCl 2 ppt, time 8 d) was 0.170 g/L. The “Culture Dry Weight in 230L reactors” value (NaCl 2 ppt, time 9 d) was 0.218 g/L, the “Culture Dry Weight in 230L reactors” value (NaCl 2 ppt, time 10 d) was 0.150 g/L and the “Culture Dry Weight in 230L reactors” value (NaCl 4 ppt, time 0 d) was 0.037 g/L. The “Culture Dry Weight in 230L reactors” value (NaCl 4 ppt, time 1 d) was 0.063 g/L, the “Culture Dry Weight in 230L reactors” value (NaCl 4 ppt, time 2 d) was 0.080 g/L and the “Culture Dry Weight in 230L reactors” value (NaCl 4 ppt, time 4 d) was 0.115 g/L. For the same molecule, the “Culture Dry Weight in 230L reactors” value (NaCl 4 ppt, time 5 d) was 0.120 g/L, the “Culture Dry Weight in 230L reactors” value (NaCl 4 ppt, time 6 d) was 0.125 g/L and the “Culture Dry Weight in 230L reactors” value (NaCl 4 ppt, time 7 d) was 0.148 g/L. For the same molecule, the “Culture Dry Weight in 230L reactors” value (NaCl 4 ppt, time 8 d) was 0.153 g/L, the “Culture Dry Weight in 230L reactors” value (NaCl 4 ppt, time 9 d) was 0.198 g/L and the “Culture Dry Weight in 230L reactors” value (NaCl 4 ppt, time 10 d) was 0.143 g/L. The “Culture Dry Weight in 230L reactors” value (NaCl 4 ppt, time 11 d) was 0.148 g/L, the “Culture Dry Weight in 230L reactors” value (NaCl 4 ppt, time 12 d) was 0.150 g/L and the “Culture Dry Weight in 230L reactors” value (NaCl 5 ppt, time 0 d) was 0.040 g/L. For the same molecule, the “Culture Dry Weight in 230L reactors” value (NaCl 5 ppt, time 1 d) was 0.070 g/L, the “Culture Dry Weight in 230L reactors” value (NaCl 5 ppt, time 4 d) was 0.162 g/L and the “Culture Dry Weight in 230L reactors” value (NaCl 5 ppt, time 5 d) was 0.185 g/L. For the same molecule, the “Culture Dry Weight in 230L reactors” value (NaCl 5 ppt, time 6 d) was 0.213 g/L, the “Culture Dry Weight in 230L reactors” value (NaCl 5 ppt, time 7 d) was 0.223 g/L and the “Culture Dry Weight in 230L reactors” value (NaCl 5 ppt, time 8 d) was 0.270 g/L. The “Culture Dry Weight in 230L reactors” value (NaCl 5 ppt, time 9 d) was 0.293 g/L, the “Culture Dry Weight in 230L reactors” value (NaCl 5 ppt, time 10 d) was 0.265 g/L and the “Culture Dry Weight in 230L reactors” value (NaCl 5 ppt, time 11 d) was 0.250 g/L. The “Culture Dry Weight in 230L reactors” value (NaCl 5 ppt, time 12 d) was 0.280 g/L, the “Culture Dry Weight in 230L reactors” value (NaCl 6 ppt, time 0 d) was 0.040 g/L and the “Culture Dry Weight in 230L reactors” value (NaCl 6 ppt, time 1 d) was 0.058 g/L. The “Culture Dry Weight in 230L reactors” value (NaCl 6 ppt, time 4 d) was 0.140 g/L, the “Culture Dry Weight in 230L reactors” value (NaCl 6 ppt, time 5 d) was 0.178 g/L and the “Culture Dry Weight in 230L reactors” value (NaCl 6 ppt, time 6 d) was 0.198 g/L. The “Culture Dry Weight in 230L reactors” value (NaCl 6 ppt, time 7 d) was 0.218 g/L, the “Culture Dry Weight in 230L reactors” value (NaCl 6 ppt, time 8 d) was 0.260 g/L and the “Culture Dry Weight in 230L reactors” value (NaCl 6 ppt, time 9 d) was 0.260 g/L. The “Culture Dry Weight in 230L reactors” value (NaCl 6 ppt, time 10 d) was 0.250 g/L, the “Culture Dry Weight in 230L reactors” value (NaCl 6 ppt, time 11 d) was 0.282 g/L and the “Culture Dry Weight in 230L reactors” value (NaCl 6 ppt, time 12 d) was 0.323 g/L. The “Culture Dry Weight in 230L reactors” value (NaCl 7 ppt, time 0 d) was 0.035 g/L, the “Culture Dry Weight in 230L reactors” value (NaCl 7 ppt, time 1 d) was 0.048 g/L and the “Culture Dry Weight in 230L reactors” value (NaCl 7 ppt, time 4 d) was 0.145 g/L. For the same molecule, the “Culture Dry Weight in 230L reactors” value (NaCl 7 ppt, time 5 d) was 0.150 g/L, the “Culture Dry Weight in 230L reactors” value (NaCl 7 ppt, time 6 d) was 0.170 g/L and the “Culture Dry Weight in 230L reactors” value (NaCl 7 ppt, time 7 d) was 0.198 g/L. For the same molecule, the “Culture Dry Weight in 230L reactors” value (NaCl 7 ppt, time 8 d) was 0.260 g/L, the “Culture Dry Weight in 230L reactors” value (NaCl 7 ppt, time 9 d) was 0.148 g/L and the “Culture Dry Weight in 230L reactors” value (NaCl 7 ppt, time 10 d) was 0.205 g/L. For the same molecule, the “Culture Dry Weight in 230L reactors” value (NaCl 7 ppt, time 11 d) was 0.218 g/L, the “Culture Dry Weight in 230L reactors” value (NaCl 7 ppt, time 12 d) was 0.245 g/L and the “Culture Dry Weight in 230L reactors” value (NaCl 8 ppt, time 0 d) was 0.018 g/L. For the same molecule, the “Culture Dry Weight in 230L reactors” value (NaCl 8 ppt, time 1 d) was 0.057 g/L, the “Culture Dry Weight in 230L reactors” value (NaCl 8 ppt, time 4 d) was 0.145 g/L and the “Culture Dry Weight in 230L reactors” value (NaCl 8 ppt, time 5 d) was 0.168 g/L. The “Culture Dry Weight in 230L reactors” value (NaCl 8 ppt, time 6 d) was 0.193 g/L, the “Culture Dry Weight in 230L reactors” value (NaCl 8 ppt, time 7 d) was 0.205 g/L and the “Culture Dry Weight in 230L reactors” value (NaCl 8 ppt, time 8 d) was 0.237 g/L. The “Culture Dry Weight in 230L reactors” value (NaCl 8 ppt, time 9 d) was 0.218 g/L, the “Culture Dry Weight in 230L reactors” value (NaCl 8 ppt, time 10 d) was 0.257 g/L and the “Culture Dry Weight in 230L reactors” value (NaCl 8 ppt, time 11 d) was 0.220 g/L. For the same molecule, the “Culture Dry Weight in 230L reactors” value (NaCl 8 ppt, time 12 d) was 0.263 g/L, the “Culture Dry Weight in 230L reactors” value (NaCl 10 ppt, time 0 d) was 0.045 g/L and the “Culture Dry Weight in 230L reactors” value (NaCl 10 ppt, time 1 d) was 0.060 g/L. The “Culture Dry Weight in 230L reactors” value (NaCl 10 ppt, time 4 d) was 0.120 g/L, the “Culture Dry Weight in 230L reactors” value (NaCl 10 ppt, time 5 d) was 0.130 g/L and the “Culture Dry Weight in 230L reactors” value (NaCl 10 ppt, time 6 d) was 0.168 g/L. For the same molecule, the “Culture Dry Weight in 230L reactors” value (NaCl 10 ppt, time 7 d) was 0.145 g/L, the “Culture Dry Weight in 230L reactors” value (NaCl 10 ppt, time 8 d) was 0.145 g/L and the “Culture Dry Weight in 230L reactors” value (NaCl 10 ppt, time 9 d) was 0.160 g/L. For the same molecule, the “Culture Dry Weight in 230L reactors” value (NaCl 10 ppt, time 10 d) was 0.173 g/L, the “Culture Dry Weight in 230L reactors” value (NaCl 10 ppt, time 11 d) was 0.145 g/L and the “Culture Dry Weight in 230L reactors” value (NaCl 10 ppt, time 12 d) was 0.168 g/L. For the same molecule, the “Culture Dry Weight in 230L reactors” value (NaCl 18 ppt, time 0 d) was 0.035 g/L, the “Culture Dry Weight in 230L reactors” value (NaCl 18 ppt, time 1 d) was 0.052 g/L and the “Culture Dry Weight in 230L reactors” value (NaCl 18 ppt, time 4 d) was 0.135 g/L. For the same molecule, the “Culture Dry Weight in 230L reactors” value (NaCl 18 ppt, time 5 d) was 0.173 g/L, the “Culture Dry Weight in 230L reactors” value (NaCl 18 ppt, time 6 d) was 0.180 g/L and the “Culture Dry Weight in 230L reactors” value (NaCl 18 ppt, time 7 d) was 0.165 g/L. For the same molecule, the “Culture Dry Weight in 230L reactors” value (NaCl 18 ppt, time 8 d) was 0.165 g/L, the “Culture Dry Weight in 230L reactors” value (NaCl 18 ppt, time 9 d) was 0.175 g/L and the “Culture Dry Weight in 230L reactors” value (NaCl 18 ppt, time 10 d) was 0.183 g/L. For the same molecule, the “Culture Dry Weight in 230L reactors” value (NaCl 18 ppt, time 11 d) was 0.200 g/L and the “Culture Dry Weight in 230L reactors” value (NaCl 18 ppt, time 12 d) was 0.175 g/L.
